# Measurements from the NIST ThermoML archive (doi:10.1016/j.fluid.2014.05.023).
# Values joined by “and” are separate entries in the source; they are usually repeats but may differ in a detail not shown here. Equal values may be shown once. Numbers after ± are expanded uncertainties.
# Test: activity coefficient (dimensionless); of the first substance listed, at infinite dilution; xn = mol fraction of the nth substance listed
# Settings: 101 kPa, Liquid, Chromatography, x1 = 0
SMILES,activity coefficient (273.35 K),activity coefficient (283.15 K),activity coefficient (293.15 K),activity coefficient (298.15 K),activity coefficient (303.15 K),activity coefficient (313.15 K),activity coefficient (323.15 K),activity coefficient (333.15 K),activity coefficient (341.15 K),activity coefficient (351.15 K),activity coefficient (361.25 K)
CCCCOC(C)=O [butyl ethanoate] + O,613 ± 42,799 ± 55,942 ± 65,1040 ± 72,1080 ± 75,1140 ± 79,1160 ± 80,1140 ± 78,,,
CCCC(=O)OCC [ethyl butanoate] + O,,,993 ± 68,,1090 ± 75,1150 ± 79,1180 ± 81,1180 ± 81,1110 ± 120,1030 ± 110,
CCCOC(C)=O [propyl ethanoate] + O,172 ± 12,217 ± 15,274 and 257,261 and 270,281 ± 19,302 ± 21,319 ± 22,321 ± 22,,,

# Now from value to compound:
activity coefficient (273.35 K),activity coefficient (283.15 K),activity coefficient (293.15 K),activity coefficient (298.15 K),activity coefficient (303.15 K),activity coefficient (313.15 K),activity coefficient (323.15 K),activity coefficient (333.15 K),activity coefficient (341.15 K),activity coefficient (351.15 K),activity coefficient (361.25 K),SMILES
44.5 ± 3,54.9 ± 3.8,64.8 and 68,69.2 ± 4.7,73.6 ± 5,80.1 ± 5.5,,,,,,CCOC(C)=O [ethyl acetate] + O
,,252 ± 17,,291 ± 20,312 ± 21,329 ± 23,343 ± 24,332 and 328,366 and 321,283 ± 57,CCOC(=O)CC [ethyl propanoate] + O
